Measurements as given in publication PMC6222718, “Ethylenediamine Derived Carboxamides of Betulinic and Ursolic Acid as Potential Cytotoxic Agents” (Molecules : A Journal of Synthetic Chemistry and Natural …, 2018).
“Also recorded” adds a separate entry of the source.

Tests used:
[1] = tested on: A2780 cells; assay: AO/PI dye exclusion test, A2780; format: cell-based, human; details: 1 µM, 24 h
Method: (§1) Extended biological investigations were performed for compounds 25 and 26 using dye exclusion acridine orange (AO)/propidium iodide (PI) assays by treating MCF-7 or A2780 tumor cells with 25 and 26, respectively for 24 h (Figure 3). […] For both compounds, membrane blebbing of some cells could also be observed. These observations can be regarded as indications of apoptosis.
(§2) Morphological characteristics of cell death were analyzed employing an AO/PI assay using human cancer cell lines A2780 and MCF-7. Approximately 8 × 10^5 cells were seeded in cell culture flasks (25 cm^2), and the cells were allowed to grow for 24 h. After removing the used medium, fresh medium was reloaded (or a blank new medium was used as a control). After 24 h, the content of the flask was collected and centrifuged (1200 rpm, 4 °C), and the pellet was gently suspended in phosphate-buffered saline (PBS (w/w), 1 mL) and centrifuged again. The PBS was removed, and the pellet gently suspended in PBS (50 µL) again. The analysis of the cells was performed using a fluorescence microscope after having mixed the cell suspension (10 µL) with a solution of AO/PI (1 µg/mL, 10 µL).

[2] = tested on: HT29 (colon adenocarcinoma); assay: SRB cytotoxicity assay, HT29; format: cell-based, human; details: for EC50: Homo sapiens, HT-29, SRB assay, 96 h of treatment, HT29; for Selectivity index (SI) HT29: SI = EC50 (NIH 3T3)/EC50 (HT29)
Outline: (§3)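 Seeded cells were dosed 24 h later with a minimum of six concentrations between 1 and 30 µM, incubated 96 h at 37 °C, fixed in 10% TCA, dyed with SRB and measured at 570 nm.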

[3] = tested on: several human tumor cell lines; assay: SRB cytotoxicity assay, cell line panel (summary statements); format: cell-based; details: for EC50: Homo sapiens, summary over the cell lines tested; for SI factors (over the cancerous cell lines): SI = EC50 (NIH 3T3)/EC50 (tumor cell line), summary
Method: The cytotoxicity of ursolic and betulinic carboxamides 3–30 was determined in sulforhodamine B (SRB) assays.
The cell lines used were human cancer cell lines: 518A2 (melanoma), A2780 (ovarian carcinoma), HT29 (colon adenocarcinoma), MCF-7 (breast adenocarcinoma), 8505C (thyroid carcinoma) and non-malignant mouse fibroblasts NIH 3T3. Cultures were maintained as monolayers in RPMI 1640 medium with L-glutamine (Capricorn Scientific GmbH, Ebsdorfergrund, Germany) supplemented with 10% heat inactivated fetal bovineserum (Sigma-Aldrich Chemie GmbH, Steinheim, Germany) and penicillin/streptomycin (Capricorn Scientific GmbH, Ebsdorfergrund, Germany) at 37 °C in a humidified atmosphere with 5% CO2.
The cytotoxicity of the compounds was evaluated using the sulforhodamine-B (Kiton-Red S, ABCR) micro culture colorimetric assay. Cells were seeded into 96-well plates on day 0 at appropriate cell densities to prevent confluence of the cells during the period of experiment. After 24 h, the cells were treated with 6 different concentrations (1, 3, 7, 12, 20 and 30 µM) minimum. The final concentration of DMSO/DMF never exceeded 0.5%, which was non-toxic to the cells. After a 96 h treatment, the supernatant medium from the 96-well plates was discarded, the cells were fixed with 10% trichloroacetic acid (TCA) and allowed to rest at 4 °C. After 24 h fixation, the cells were washed in a strip washer and dyed with SRB solution (100 µL, 0.4% in 1% acetic acid) for about 20 min. After dying, the plates were washed four times with 1% acetic acid to remove the excess of the dye and allowed to air-dry overnight. Tris base solution (200 µL, 10 mM) was added to each well and absorbance was measured at λ = 570 nm using a 96-well plate reader (Tecan Spectra, Crailsheim, Germany). The EC50 values were averaged from three independent experiments performed each in triplicate calculated from semi logarithmic dose response curves applying a non-linear 4P Hills-slope equation (GraphPad Prism5; variables top and bottom were set to 100 and 0, respectively).

[4] = tested on: MCF-7 (breast adenocarcinoma); assay: SRB cytotoxicity assay, MCF-7; format: cell-based, human; details: for EC50: Homo sapiens, MCF7, SRB assay, 96 h of treatment, MCF-7; for Selectivity index (SI) MCF-7: SI = EC50 (NIH 3T3)/EC50 (MCF-7)
Outline: as §3

[5] = tested on: 518A2 (melanoma); assay: SRB cytotoxicity assay, 518A2; format: cell-based, human; details: for EC50: Homo sapiens, SRB assay, 96 h of treatment, 518A2; for Selectivity index (SI) 518A2: SI = EC50 (NIH 3T3)/EC50 (518A2)
Outline: as §3

[6] = tested on: A2780 (ovarian carcinoma); assay: SRB cytotoxicity assay, A2780; format: cell-based, human; details: for factor by which activity is reduced compared to doxorubicin hydrochloride (DRC): A2780 tumor cells, EC50 versus DRC; for EC50: Homo sapiens, SRB assay, 96 h of treatment, A2780; for Selectivity index (SI) A2780: SI = EC50 (NIH 3T3)/EC50 (A2780)
Outline: as §3

[7] = tested on: non-malignant mouse fibroblasts NIH 3T3; assay: SRB cytotoxicity assay, NIH 3T3; format: cell-based; details: NIH3T3, 96 h of treatment
Outline: as §3

[8] = tested on: 8505C (thyroid carcinoma); assay: SRB cytotoxicity assay, 8505C; format: cell-based, human; details: for EC50: Homo sapiens, SRB assay, 96 h of treatment, 8505C; for Selectivity index (SI) 8505C: SI = EC50 (NIH 3T3)/EC50 (8505C)
Outline: as §3

[9] = tested on: MCF-7 cells; assay: AO/PI dye exclusion test, MCF-7; format: cell-based, human; details: 24 h
Method: as §1, §2

Row | Structure (SMILES) | AO/PI fluorescence microscopy, cell morphology [1] | EC50 [2] [nM] | Selectivity index (SI) HT29 [2] | EC50 [3] [nM] | SI factors (over the cancerous cell lines) [3] | EC50 [4] [nM] | Selectivity index (SI) MCF-7 [4] | EC50 [5] [nM] | Selectivity index (SI) 518A2 [5] | factor by which activity is reduced compared to doxorubicin hydrochloride (DRC) [6] | EC50 [6] [nM] | Selectivity index (SI) A2780 [6] | EC50 [7] [nM] | EC50 [8] [nM] | Selectivity index (SI) 8505C [8] | AO/PI fluorescence microscopy, cell morphology ([9]; 1 µM) | AO/PI fluorescence microscopy, cell morphology ([9]; 0.75 µM)
1 | C=C(C)C1CC[C@]2(C(=O)NCCN(C)C)CC[C@]3(C)C(CCC4[C@@]5(C)CC[C@H](O)C(C)(C)C5CC[C@]43C)C12 (stereo partly drawn) [Compound 25, (3β)-N-[2-(Dimethylamino)ethyl]-3-hydroxy-lup-20(29)-en-28-amide] | both green colored cells as well as late-stage apoptotic cells | 300 ± 50 | 1.00 | < 1000 | ~1 | 300 ± 70 | 1.00 | 300 ± 160 | 1.00 | 20 | 200 ± 10 | 1.50 | 300 ± 90 | 400 ± 40 | 0.75 | both apoptotic (membrane blebbing, marked by white arrows in Figure 3) and necrotic cells (red staining) | –
2 | C=C(C)C1CC[C@]2(C(=O)NCCN3CCCC3)CC[C@]3(C)C(CCC4[C@@]5(C)CC[C@H](O)C(C)(C)C5CC[C@]43C)C12 (stereo partly drawn) [Compound 26, (3β)-N-(2-Pyrrolidin-1-ylethyl)-3-hydroxy-lup-20(29)-en-28-amide] | both green colored cells as well as late-stage apoptotic cells | 400 ± 20 | 1.00 | < 1000 | ~1 | 200 ± 50 | 2.00 | 400 ± 60 | 1.00 | 30 | 300 ± 100 | 1.33 | 400 ± 20 | 500 ± 60 | 0.80 | – | intact cell membranes (green staining); also recorded: protrusions in the plasma membrane (blebbing) of some cells
